Measured values reported in patent US10945438B2, “Methods and compositions for reducing fungal infestation and improving grass quality” (BASF CORPORATION, priority 2015, dated 2021).

Test system: yellow spot
Experiment: Percent turf area exhibiting yellow spot symptoms (Example 2)
Assay type: in vivo, Agrostis palustris
Conditions: alone versus in combination
Protocol: In another aspect, a composition herein treats or reduces yellow spot disease. Yellow spot appears in the form of yellow, chlorotic, circular discrete patches ranging from dime/quarter size up to 2-3 inches diameter on bentgrass putting greens, tees, and approaches.
The study was conducted on “A-1” creeping bentgrass maintained as a golf course putting green. Plots were mowed 6 times per week with clippings collected. The study was irrigated to prevent drought stress. Individual plots were 3 ft×6 ft and arranged in a randomized complete block design with 4 replications. Chipco 26GT (4 fl oz/1000 ft^2) was applied to the study for suppression of dollar spot and brown patch on 2 May, 9 June, 29 July, and 20 August. Treatments were applied in water equivalent to 2 gal 1000 ft-2 with a CO2-powered sprayer equipped with a TeeJet AI9508E nozzle at 50 psi. Treatments were initiated on 24 April and applied on 28-day intervals. The study was irrigated with 0.1-0.2 inches of water after all treatments were applied. […] Turfgrass quality was assessed on 24 April, 21 May, 18 June, 16 July, 13 August, and 2 September. NDVI was assessed on 21 May, 18 June, 17 July, 13 August, and 2 September. Root length (3 subsamples per plot) was assessed on 18 September.

CCCOC(=O)NCCCN(C)C [propamocarb]
Control of yellow spot disease (in words): not controlled
